Results as given in patent publication EP0282292B1, “Improved chelator for anaerobic sealants” (LOCTITE (IRELAND) Ltd., priority 1987, dated 1988).
Read-outs that look alike come from different tables or passages of the source.

Columns and labels:
[1] = anaerobic sealant formulation with acidic components
[2] = Stability at 82°C (time to first gellation) of curable formulation spiked with copper; conditions: for level of chelator able to counteract added copper: 0.5 ppm of added copper; for stability (time to first gellation): 82°C, spiked with copper after one week at room temperature, supernatant only

In the case of `O=C([O-])CN(CCN(CC(=O)[O-])CC(=O)[O-])CC(=O)[O-].[Na+].[Na+].[Na+].[Na+]` [EDTA Na₄, ethylenediaminetetraacetic acid tetrasodium salt], the “time to precipitation from solution after addition” value [1] is reported as at most 24 h.
With `O=C([O-])CN(CCO)CCN(CC(=O)[O-])CC(=O)[O-].[Na+].[Na+].[Na+]` [HEDTA Na₃, N-hydroxyethylenediaminetriacetic acid trisodium salt] the “level of chelator able to counteract added copper” value [2] was 300 ppm, the “stability (time to first gellation)” value [2] was “no loss of chelation efficiency on aging” and the “chelator concentration, Sampled after 0.5hr. standing-supernatant liquid taken” value (1% Maleic Acid in PEGMA) was 110 ppm. For the same molecule, the “chelator concentration, Stirred 0.5hr. mixture sampled” value (1% Maleic Acid in PEGMA) was 826 ppm, the “chelator concentration, supernatant after 4 days standing” value (1% Maleic Acid in PEGMA) was 175 ppm and the “chelator concentration, supernatant after 5 days standing” value (1% Maleic Acid in PEGMA) was 180 ppm. The “chelator concentration, Sampled after 0.5hr. standing-supernatant liquid taken” value (3% Saccharin in PEGMA) was 65 ppm, the “chelator concentration, Stirred 0.5hr. mixture sampled” value (3% Saccharin in PEGMA) was 904 ppm and the “chelator concentration, supernatant after 4 days standing” value (3% Saccharin in PEGMA) was 69 ppm. The “chelator concentration, supernatant after 5 days standing” value (3% Saccharin in PEGMA) was 75 ppm.
For `CC(O)CN(CCN(CC(C)O)CC(C)O)CC(C)O` (stereo not shown) [EDTPA, tetrakis-(2-hydroxy-propyl)-ethylenediamine], the “level of chelator able to counteract added copper” value [2] was 300 ppm and the “stability (time to first gellation)” value [2] was “no loss of chelation efficiency on aging”.
